Legend:
Type in all cases: cell-based
[1] = test system: primary human total T-cells; test: T-cell activation assessed by CD69 expression
Description: (§1) Peripheral blood mononuclear cells (PBMC) were obtained either: 1) by using Ficoll-Paque™ (GE Healthcare) for separation of peripheral blood hematopoietic cells from buffy coats of healthy human donors; or 2) directly from FeukoPak donations. Total human primary T-cells were isolated from the PMBCs utilizing negative selection with commercial kits following the manufacturer's protocol (Miltenyi Catalog #130-096-535 (i.e., cocktail of antibodies against surface markers CD14, CD15, CD16, CD19, CD34, CD36, CD56, CD123 and CD235a are incubated with the PBMCs before passing the samples by magnetic beads for removal of cells expressing those surface markers) or StemCells Catalog #17951) to yield >95% CD3+ cells as assessed by flow cytometry. For measurement of cell proliferation, cells were labeled with Cell Trace Violet (Invitrogen) following manufacturer's protocol prior to activation by stimulation with anti-CD3 antibody alone or in combination with anti-CD28 antibody. The Cbl-b inhibitor was added to 1×10^5 cells per well at multiple concentrations (e.g., 10 μM, 1.11 μM, or 0.123 μM) with a final DMSO concentration of <0.1%. The plate was incubated for one hour at 37° C. in 5% CO2. Following incubation with the Cbl-b inhibitor, primary human total T-cells were stimulated with either plate bound anti-CD3 antibody (OKT3) alone or plate bound anti-CD3 antibody (OKT3) with soluble anti-CD28 antibody (28.2) (Life Technologies). To prepare plates with plate bound anti-CD3 antibody (OKT3), 96-well round bottom tissue culture plates were coated with 100 μl of anti-CD3 antibody (OKT3) at 10 μg/mL for 4 hours at 37° C. 5% CO2 in phosphate buffered saline (PBS). The plates were washed with PBS prior to adding the cells with or without soluble anti-CD28 antibody (28.2) to each well at a final concentration of 5 μg/mL. Cells were stimulated for 48 hours prior to harvesting the cell free supernatant and staining the cell population for surface marker assessment by flow cytometry. Supernatants were analyzed for cytokine secretion (e.g., GM-CSF, IFNγ and TNFα) by ELISA (R&D Systems, Peprotech or Life Technologies) or Luminex multiplex kits (Procarta Life Technologies) following manufacturer's protocol. Cells were stained with anti-CD69 (BD Biosciences) to assess levels of surface markers of activation. Proliferation was measured by flow cytometry and data was analyzed with FlowJo v7.6.5 or v10. Readouts were reported as fold change over baseline. In some embodiments, baseline was the measurement obtained from total human T-cells stimulated with anti-CD3 antibody alone, wherein the cells were not incubated with a Cbl-b inhibitor. In some embodiments, baseline was the measurement obtained from total human T-cells stimulated with anti-CD3 antibody and anti-CD28 antibody, where the cells were not incubated with a Cbl-b inhibitor.
(§2) Cbl-b inhibitors were tested to determine their ability to induce or enhance secretion of cytokines from T-cells (e.g., GM-CSF, IFNγ and TNFα) and/or surface expression of cell surface markers on T-cells (e.g., CD69) that is indicative of T-cell activation. Cbl-b inhibitors were also tested to determine their ability to induce or enhance T-cell proliferation. Cbl-b inhibitors were tested for their effects on T-cell activation in the presence of costimulation and where conditions were suboptimal for priming.
(§3) Readouts for T-cell activation were reported as fold change over baseline. Baseline for this study was the measurement obtained from total human T-cells stimulated with anti-CD3 antibody alone or anti-CD3 antibody in combination with soluble anti-CD28 antibody, where the cells were not incubated with a Cbl-b inhibitor. For T-cells stimulated with anti-CD3/anti-CD28 or with anti-CD3 alone changes greater than 1,2-fold over baseline for % positive CD69 staining and greater than 2-fold over baseline for % total proliferating cells were considered a significant and positive response (Table 4a). […]

[2] = test system: primary human total T-cells; test: T-cell activation assessed by cell proliferation (Cell Trace Violet)
Description: as §1, §2, §3

[3] = test system: primary human total T-cells; test: T-cell activation assessed by cytokine secretion (GM-CSF, IFNγ, TNFα)
Description: as §1, §2, §3

[4] = CD3/CD28 stimulation, CD4 T-cells, read-out: % CD69+ (CD4)
[5] = CD3/CD28 stimulation, CD8 T-cells, read-out: % CD69+ (CD8)
[6] = CD3 alone stimulation, CD4 T-cells, read-out: % CD69+ (CD4)
[7] = CD3 alone stimulation, CD8 T-cells, read-out: % CD69+ (CD8)
[8] = CD3/CD28 stimulation, CD4 T-cells, read-out: % CP (cell proliferation) (CD4)
[9] = CD3/CD28 stimulation, CD8 T-cells, read-out: % CP (cell proliferation) (CD8)
[10] = CD3 alone stimulation, CD8 T-cells, read-out: % CP (cell proliferation) (CD8)
[11] = CD3/CD28 stimulation, read-out: GM-CSF secretion
[12] = CD3/CD28 stimulation, read-out: IFNγ secretion
[13] = CD3/CD28 stimulation, read-out: TNFα secretion
[14] = CD3 alone stimulation, read-out: GM-CSF secretion
[15] = CD3 alone stimulation, read-out: IFNγ secretion
[16] = CD3 alone stimulation, read-out: TNFα secretion

SMILES	fold induction at 1.11 µM [1, 4]	fold induction at 10 µM [1, 4]	fold induction at 1.11 µM [1, 5]	fold induction at 10 µM [1, 5]	fold induction at 1.11 µM [1, 6]	fold induction at 10 µM [1, 6]	fold induction at 1.11 µM [1, 7]	fold induction at 10 µM [1, 7]	fold induction at 1.11 µM [2, 8]	fold induction at 10 µM [2, 8]	fold induction at 1.11 µM [2, 9]	fold induction at 10 µM [2, 9]	fold induction at 1.11 µM [2, 10]	fold induction at 10 µM [2, 10]	fold induction at 1.11 µM [3, 11]	fold induction at 1.11 µM [3, 12]	fold induction at 1.11 µM [3, 13]	fold induction at 10 µM [3, 11]	fold induction at 10 µM [3, 12]	fold induction at 10 µM [3, 13]	also measured
Cc1cc(C(=O)Nc2cccc([C@@H](C)Cc3nncn3C)c2)nc(C2CC2)n1 [Compound 325, (S)-2-Cyclopropyl-6-methyl-N-(3-(1-(4-methyl-4H-1,2,4-triazol-3-yl)propan-2-yl)phenyl)pyrimidine-4-carboxamide]	1.4 to 1.6	1.4 to 1.6	1.2 to 1.4	1.2 to 1.4	1.4 to 1.6	> 1.6	≤ 1.2	1.2 to 1.4	> 4	> 4	2.01 to 3	> 4	2.01 to 3	> 4	1.51 to 2	3.01 to 4	≤ 1.5	2.01 to 4	> 4	2.01 to 4	fold induction at 1.11 µM [3, 14]: ≤ 1.5; fold induction at 1.11 µM [3, 15]: < 2; fold induction at 1.11 µM [3, 16]: ≤ 1.5; fold induction at 10 µM [3, 14]: 1.51 to 2; fold induction at 10 µM [3, 15]: < 2; fold induction at 10 µM [3, 16]: ≤ 1.5
Cn1cnnc1CC1(c2cccc(NC(=O)c3nc4c(C(F)(F)F)cccc4[nH]3)c2)COC1 [Compound 335, N-(3-{3-[(4-methyl-1,2,4-triazol-3-yl)methyl]oxetan-3-yl}phenyl)-4-(trifluoromethyl)-1H-1,3-benzodiazole-2-carboxamide]	1.4 to 1.6	> 1.6	1.2 to 1.4	1.2 to 1.4	> 1.6	> 1.6	1.2 to 1.4	1.4 to 1.6	> 4	> 4	3.01 to 4	3.01 to 4	> 4	> 4	1.51 to 2	> 4	1.51 to 2	> 4	2.01 to 3	2.01 to 4	fold induction at 1.11 µM [3, 14]: ≤ 1.5; fold induction at 1.11 µM [3, 15]: < 2; fold induction at 1.11 µM [3, 16]: 1.51 to 2; fold induction at 10 µM [3, 14]: 2.01 to 4; fold induction at 10 µM [3, 15]: 2.01 to 3; fold induction at 10 µM [3, 16]: 1.51 to 2
Cc1cc(C(=O)Nc2cccc(C3(Cc4nncn4C)COC3)c2)nc(C2CC2)n1 [Compound 336, 2-cyclopropyl-6-methyl-N-(3-(3-((4-methyl-4H-1,2,4-triazol-3-yl)methyl)oxetan-3-yl)phenyl)pyrimidine-4-carboxamide]	1.4 to 1.6	1.4 to 1.6	1.2 to 1.4	1.2 to 1.4	1.4 to 1.6	> 1.6	1.2 to 1.4	1.4 to 1.6	> 4	> 4	3.01 to 4	> 4	> 4	> 4	2.01 to 4	2.01 to 3	2.01 to 4	> 4	> 4	2.01 to 4	fold induction at 1.11 µM [3, 14]: 2.01 to 4; fold induction at 1.11 µM [3, 15]: 2.01 to 3; fold induction at 1.11 µM [3, 16]: 1.51 to 2; fold induction at 10 µM [3, 14]: 2.01 to 4; fold induction at 10 µM [3, 15]: > 4; fold induction at 10 µM [3, 16]: 1.51 to 2
Cc1n[nH]c(C)c1-c1cc2c(c(C(F)(F)F)c1)CN(c1cccc(C3(Cc4nncn4C)COC3)c1)C2=O [Compound 385, 6-(3,5-dimethyl-1H-pyrazol-4-yl)-2-(3-{3-[(4-methyl-4H-1,2,4-triazol-3-yl)methyl]oxetan-3-yl}phenyl)-4-(trifluoromethyl)-2,3-dihydro-1H-isoindol-1-one]	1.2 to 1.4	1.4 to 1.6	1.2 to 1.4	1.2 to 1.4	1.4 to 1.6	> 1.6	1.2 to 1.4	1.4 to 1.6	> 4	> 4	2.01 to 3	3.01 to 4	3.01 to 4	> 4	1.51 to 2	< 2	1.51 to 2	2.01 to 4	> 4	2.01 to 4	fold induction at 1.11 µM [3, 14]: 1.51 to 2; fold induction at 1.11 µM [3, 15]: < 2; fold induction at 1.11 µM [3, 16]: ≤ 1.5; fold induction at 10 µM [3, 14]: 2.01 to 4; fold induction at 10 µM [3, 15]: < 2; fold induction at 10 µM [3, 16]: 1.51 to 2
